Series [1] is described as follows: PK data (IV/PO) in Beagle dog. Particulars: in vivo; for clearance: read-out: Observed CL (converted); for Vd: read-out: Vss; for bioavailability: PO 0.5 mg/Kg.
Series [2] deals with LU99 (lung, giant cell carcinoma; MTAP-Deleted). In words: In vitro cell viability assay (CellTiter-Glo, 9 days), LU99. It counts as cell-based. Particulars: Homo sapiens, Lu-99, 216 h, 9-day treatment. The protocol:
(§1) Some Compounds of the Disclosure were tested in Calu-6 (Vendor: ATCC; Cat #HTB-56; Description: lung, adenocarcinoma), LU99 (Vendor: JCRB; Cat #JCRB0080; Description: lung, giant cell carcinoma), SW780 (Vendor: ATCC; Cat #CRL-2169; Description: bladder, urothelial carcinoma), and BxPC-3 (Vendor: ATCC; Cat #CRL-1687; Description: pancreas, adenocarcinoma) cellular viability assays according to the general protocol. Seeded cells into 96-well plate and incubated overnight. Seeded an additional 10 wells per cell line in an additional 96-well plate for assessing Time Zero luminescence and incubated overnight. To treatment plates, added compounds into each well using Tecan D300e dispenser (nine three-fold dilutions starting at […]) and incubated for 9 days. Time Zero (no compound treatment, luminescence assessed on day 1) and 9-day treatment (luminescence assessed on day 10) plates were assessed using the same CellTiter-Glo® substrate protocol. Thawed CellTiter-Glo® Buffer and lyophilized CellTiter-Glo® substrate and equilibrated to room temperature prior to use. Transferred 100 ml CellTiter-Glo® Buffer into amber bottle containing CellTiter-Glo® substrate to reconstitute the lyophilized enzyme/substrate mixture. For Time Zero and 9-day treatment plates, removed all plating media. Added 100 μl fresh media/well. Added 100 μl CellTiter-Glo® Reagent per well. Mixed contents for 10 min on an orbital shaker to lyse cells. Recorded luminescence with Perkin Elmer Envision 2105 machine. Analyzed the data with GraphPad software.
(ATP-based viability assays read luminescence as a measure of living cells.)

Series [3] in a line: PK data (IV/PO) in Sprague-Dawley rat. Particulars: for half-life / clearance / Vd / bioavailability: Sprague-Dawley, rat, in vivo; for half-life / clearance / Vd: iv; for clearance: read-out: Observed CL (converted); for Vd: read-out: Vss; for bioavailability: po. It counts as in vivo.
Series [4] has as its system BxPC-3 (pancreas, adenocarcinoma; MTAP-Deleted). In words: In vitro cell viability assay (CellTiter-Glo, 9 days), BxPC-3. It counts as cell-based. Particulars: Homo sapiens, BXPC-3, 216 h, 9-day treatment. The protocol: as §1
For series [5], the target named is T1, hERG (Homo sapiens, UniProt Q12809).
T1 construct: host or cells: HEK293
T1 sequence (Q12809 whole entry): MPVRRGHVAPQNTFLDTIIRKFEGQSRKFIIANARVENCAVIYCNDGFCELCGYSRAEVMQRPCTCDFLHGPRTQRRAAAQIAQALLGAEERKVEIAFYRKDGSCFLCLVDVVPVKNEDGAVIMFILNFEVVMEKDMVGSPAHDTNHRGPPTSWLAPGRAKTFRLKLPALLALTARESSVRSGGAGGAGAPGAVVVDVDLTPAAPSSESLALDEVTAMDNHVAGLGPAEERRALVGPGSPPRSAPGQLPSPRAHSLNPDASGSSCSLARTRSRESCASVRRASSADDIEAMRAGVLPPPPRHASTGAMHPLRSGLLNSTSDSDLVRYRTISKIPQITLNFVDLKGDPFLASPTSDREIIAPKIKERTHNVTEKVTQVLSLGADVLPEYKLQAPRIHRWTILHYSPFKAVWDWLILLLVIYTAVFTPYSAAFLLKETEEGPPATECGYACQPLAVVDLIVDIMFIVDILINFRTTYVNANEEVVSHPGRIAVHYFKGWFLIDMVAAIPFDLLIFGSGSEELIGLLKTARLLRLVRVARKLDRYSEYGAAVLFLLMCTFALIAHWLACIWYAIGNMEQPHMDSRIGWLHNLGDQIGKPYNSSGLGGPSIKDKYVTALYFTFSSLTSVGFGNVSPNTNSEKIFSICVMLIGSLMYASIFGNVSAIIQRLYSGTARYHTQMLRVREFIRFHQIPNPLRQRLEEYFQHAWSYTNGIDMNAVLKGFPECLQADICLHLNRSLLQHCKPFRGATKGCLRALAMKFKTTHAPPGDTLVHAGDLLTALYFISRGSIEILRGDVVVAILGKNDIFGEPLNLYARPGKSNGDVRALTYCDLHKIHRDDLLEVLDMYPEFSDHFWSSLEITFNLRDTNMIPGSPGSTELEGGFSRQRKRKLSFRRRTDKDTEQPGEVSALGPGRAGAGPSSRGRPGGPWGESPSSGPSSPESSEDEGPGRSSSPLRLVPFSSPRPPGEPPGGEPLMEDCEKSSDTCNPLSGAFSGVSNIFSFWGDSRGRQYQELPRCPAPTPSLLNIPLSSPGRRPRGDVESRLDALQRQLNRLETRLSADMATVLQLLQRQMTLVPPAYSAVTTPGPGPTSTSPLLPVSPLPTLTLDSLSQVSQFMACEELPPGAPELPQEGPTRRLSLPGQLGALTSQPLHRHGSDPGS
In words: hERG assay (automated patch clamp, QPatch HT). It counts as cell-based. Particulars: human, HEK293 cells stably expressing hERG, * = accurate hERG measurement may be limited by compound solubility. The protocol: Cell lines and cell culture: The HEK293 cell line stably expressing the hERG ion channel was provided from Charles River laboratories. Cells were maintained in tissue culture incubators per Charles River Laboratories SOP. Stocks were maintained in cryogenic storage. HEK293 cells were stably transfected with hERG cDNA.
Automated Patch Clamp Procedures: In preparation for a recording session, intracellular solution was loaded into the intracellular compartments of the QPlate and cell suspension was pipetted into the extracellular compartments. After establishment of a whole-cell configuration, membrane currents were recorded using up to 48 parallel patch clamp amplifiers in the QPatch HT® system. The current records were sampled at 2000 Hz and low-pass Bessel filtered at 400 Hz.
Valid whole-cell recordings met the following criteria: • 1. Membrane resistance ≥200 MΩ. • 2. Leak current 25% channel current or subtracted.
hERG Test Procedures: Onset and block of hERG current was measured using a stimulus voltage pattern consisting of a 500 ms prepulse to −40 mV (leakage subtraction), a 2-second activating pulse to +40 mV followed by a 2-second test pulse to −40 mV. The pulse pattern was repeated continuously at 10 s intervals from a holding potential of −80 mV. Peak tail current was measured during the −40 mV test pulse. Leakage current was calculated from the current amplitude evoked by the −40 mV prepulse and subtracted from the total membrane current record.
Data Analysis: Data acquisition and analysis were performed using the QPatch Assay Software (Sophion Bioscience A/S, Denmark). Steady state was defined by the limiting constant rate of change with time (linear time dependence). The steady state before and after test article application were used to calculate the percentage of current inhibited at each concentration. Run down, a time-dependent reduction of current amplitude, may be compensated for in the QPatch Assay Software using standard system tools. Concentration-response data was fit to an equation of the following form: […]
Where [Test] is the concentration of test compound, IC50 is the concentration of the test compound producing half-maximal inhibition, N is the Hill coefficient and % Block is the percentage of current inhibited at each concentration of the test article. Nonlinear least squares fits will be solved with the Solver add-in for Excel 2000 or later (Microsoft, Redmond, WA).
For orientation: The hERG channel carries a current that helps repolarise heart muscle cells.

The term half-life denotes how long it takes for the measured level to halve. The GI50 is the concentration at which growth is held to half of that of the control. In general, IC50 refers to the concentration needed to halve the response being measured.

Where “and” joins values, the source holds several entries; their conditions need not be identical. Equal values may be shown once.

`Nc1nc2cc(F)c(C(=O)N3CCC[C@@H]4Oc5cc(C(F)(F)F)ccc5[C@@H]43)cc2n2cncc12` [Ff-104, (4-amino-7-fluoroimidazo[1,5-a]quinoxalin-8-yl)((4aS,9bS)-7-(trifluoromethyl)-3,4,4a,9b-tetrahydrobenzofuro[3,2-b]pyridin-1(2H)-yl)methanone]: the half-life in series [1] (IV 0.25 mg/Kg) was 3.9 h; in series [1] (IV 0.5 mg/Kg), 8.7 h; in series [3] (0.33 mg/kg, IV 0.33 mg/Kg) it was 3.7 h. Further, the clearance in series [1] (IV 0.25 mg/Kg) is 6.5 mL/min/kg; in series [1] (IV 0.5 mg/Kg), 3.17 mL/min/kg. In addition, the Vd in series [1] (IV 0.25 mg/Kg) was 1.78 L/kg; in series [1] (IV 0.5 mg/Kg), 2 L/kg. In addition, in series [1], the bioavailability is 68%. Further, in series [2], the concentration for 50% growth inhibition (GI50) was determined as 0.004 µM. Also, the T1/2 in series [3] (IV 0.33 mg/Kg, 0.33 mg/kg) was found to be 3.77 h. For the same compound, the “% F” value in series [3] (PO 1.66 mg/Kg, 1.66 mg/kg) was 67% and 98%.
With `Nc1nc2ccc(C(=O)N3CCC[C@@H]4Oc5cc(C(F)(F)F)ccc5[C@@H]43)cc2n2cncc12` [Ff-111, (4-aminoimidazo[1,5-a]quinoxalin-8-yl)((4aS,9bS)-7-(trifluoromethyl)-3,4,4a,9b-tetrahydrobenzofuro[3,2-b]pyridin-1(2H)-yl)methanone], the GI50 in series [2] was found to be 0.008 µM. Also, in series [3] (0.33 mg/kg, IV 0.33 mg/Kg), the half-life was 5.9 h, the clearance was 2.5 mL/min/kg and the Vd is 1.29 L/kg. Besides, halving of growth in series [4] (GI50) required 0.01 µM.
On to `Nc1nc2cnc(C(=O)N3CCC[C@@H]4Oc5cc(C(F)(F)F)ccc5[C@@H]43)cc2n2cncc12` [Ff-110, (4-aminoimidazo[1,5-a]pyrido[3,4-e]pyrazin-8-yl)((4aS,9bS)-7-(trifluoromethyl)-3,4,4a,9b-tetrahydrobenzofuro[3,2-b]pyridin-1(2H)-yl)methanone], for which the concentration for 50% growth inhibition (GI50) in series [2] and in series [4] was 0.007 µM throughout.
For the compound `Nc1nc2cnc(C(=O)N3CCC[C@@H]4Oc5cc(OC(F)(F)F)cc(F)c5[C@@H]43)cc2n2cncc12` (single isomer, unassigned) [Fg-55], in series [1] (IV 0.25 mg/Kg), the half-life is 6 h, the clearance is 4.33 mL/min/kg and the Vd was 1.8 L/kg. Also, it took 0.01 µM to inhibit growth in series [2] by half (GI50). Further, in series [3] (0.33 mg/kg, IV 0.33 mg/Kg), the half-life is 6 h, the clearance was 3.5 mL/min/kg and the Vd was 1.73 L/kg. In addition, the bioavailability in series [3] (1.66 mg/kg, PO 1.66 mg/Kg) was determined as 99%. The compound also displayed a GI50 in series [4] of 0.011 µM.
With `Nc1nc2cnc(C(=O)N3CCC[C@@H]4Oc5cc(OC(F)(F)F)ccc5[C@@H]43)cc2n2cncc12` [Ff-341, (4-aminoimidazo[1,5-a]pyrido[3,4-e]pyrazin-8-yl)((4aS,9bS)-7-(trifluoromethoxy)-3,4,4a,9b-tetrahydrobenzofuro[3,2-b]pyridin-1(2H)-yl)methanone], halving of growth in series [2] (GI50) required 0.013 µM. In series [3] (0.25 mg/kg, IV 0.25 mg/Kg), the half-life is 4.6 h, the clearance is 3.5 mL/min/kg and the Vd is 1.45 L/kg. Further, in series [3] (1.25 mg/kg, PO 1.25 mg/Kg), the bioavailability stood at 99%. This compound showed a GI50 in series [4] of 0.014 µM.
Consider `Cc1ncn2c1c(N)nc1cnc(C(=O)N3CCC[C@@H]4Oc5cc(C(F)(F)F)ccc5[C@@H]43)cc12` [Ff-499, (4-amino-3-methylimidazo[1,5-a]pyrido[3,4-e]pyrazin-8-yl)((4aS,9bS)-7-(trifluoromethyl)-3,4,4a,9b-tetrahydrobenzofuro[3,2-b]pyridin-1(2H)-yl)methanone], for which, in series [3] (0.33 mg/kg, IV 0.33 mg/Kg), the half-life was 3.1 h, the clearance is 8.17 mL/min/kg and the Vd turned out to be 1.72 L/kg.
`Nc1nc2cnc(C(=O)N3CC4(CC4)C[C@@H]4Oc5cc(C(F)(F)F)ccc5[C@@H]43)cc2n2cncc12` [Ff-648, (4-aminoimidazo[1,5-a]pyrido[3,4-e]pyrazin-8-yl)((4aS,9bS)-7-(trifluoromethyl)-4a,9b-dihydro-2H-spiro[benzofuro[3,2-b]pyridine-3,1′-cyclopropan]-1(4H)-yl)methanone]: in series [5], half-maximal inhibition (IC50) was put at 30 µM. For the same compound, the GI50 in series [2] is 0.009 µM; in series [4] it was 0.008 µM.
Consider `Cc1ncc2c(N)nc3cnc(C(=O)N4CCC[C@@H]5Oc6cc(OC(F)(F)F)ccc6[C@@H]54)cc3n12` [Ff-340, (4-amino-1-methylimidazo[1,5-a]pyrido[3,4-e]pyrazin-8-yl)((4aS,9bS)-7-(trifluoromethoxy)-3,4,4a,9b-tetrahydrobenzofuro[3,2-b]pyridin-1(2H)-yl)methanone], for which, in series [2], the GI50 was found to be 0.017 µM. Besides, in series [3] (0.33 mg/kg, IV 0.33 mg/Kg), the half-life is 5.3 h, the clearance is 8.83 mL/min/kg and the Vd was determined as 3.2 L/kg. Further, the GI50 in series [4] was determined as 0.023 µM.
For the compound `C[C@H]1CN(C(=O)c2cc3c(cc2F)nc(N)c2cncn23)[C@H]2c3ccc(C(F)(F)F)cc3C[C@H]2O1` (single isomer, unassigned) [Ff-81], in series [1] (IV 0.5 mg/Kg), the half-life is 7.9 h and the clearance was 4.33 mL/min/kg. The bioavailability in series [1] was 134%. The compound further showed a GI50 in series [2] of 0.019 µM. In series [3] (1 mg/kg, IV 1 mg/Kg), the half-life was 4.7 h, the clearance is 4 mL/min/kg and the Vd was found to be 1.65 L/kg.
With `C[C@@H]1CN(C(=O)c2cc3c(cc2F)nc(N)c2cncn23)[C@H]2c3ccc(OC(F)(F)F)cc3C[C@H]2O1` (single isomer, unassigned) [Ff-183], the GI50 was 0.011 µM in series [2] and 0.012 µM in series [4].
Consider `Nc1nc2cnc(C(=O)N3CCC[C@@H]4Oc5cc(C(F)(F)F)cc(F)c5[C@@H]43)cc2n2cncc12` (single isomer, unassigned) [Fg-53], for which the half-life in series [1] (IV 0.25 mg/Kg) was 3.8 h; in series [3] (0.33 mg/kg, IV 0.33 mg/Kg) it was 4.6 h. The clearance is 6.33 mL/min/kg in series [1] (IV 0.25 mg/Kg) and 7.33 mL/min/kg in series [3] (0.33 mg/kg, IV 0.33 mg/Kg). The Vd in series [1] (IV 0.25 mg/Kg) was 1.97 L/kg; in series [3] (0.33 mg/kg, IV 0.33 mg/Kg), 2.45 L/kg. Also, the bioavailability in series [1] was determined as 73%; in series [3] (1.66 mg/kg, PO 1.66 mg/Kg), 120%. For the same compound, the GI50 in series [2] was found to be 0.006 µM; in series [4], 0.007 µM.
